Experimental data reported in US20190119282A1, “IMIDAZOPYRIDAZINES USEFUL AS INHIBITORS OF THE PAR-2 SIGNALING PATHWAY” (Vertex Pharmaceuticals Incorporated, priority 2013, published 2019).

Columns and labels:
[1] = biological target: T1, PAR2 (HT-29 cells, SLIGKV activation) (Homo sapiens, UniProt P55085); assay: Ca FLIPR TETRA assay, ANTAGONIST mode, stimulation with 8 μM SLIGKV; assay type: cell-based; settings: HT-29 cells, stimulation with 8 μM SLIGKV
T1 construct: host or cells: HT-29 cells
T1 sequence (P55085 26-397): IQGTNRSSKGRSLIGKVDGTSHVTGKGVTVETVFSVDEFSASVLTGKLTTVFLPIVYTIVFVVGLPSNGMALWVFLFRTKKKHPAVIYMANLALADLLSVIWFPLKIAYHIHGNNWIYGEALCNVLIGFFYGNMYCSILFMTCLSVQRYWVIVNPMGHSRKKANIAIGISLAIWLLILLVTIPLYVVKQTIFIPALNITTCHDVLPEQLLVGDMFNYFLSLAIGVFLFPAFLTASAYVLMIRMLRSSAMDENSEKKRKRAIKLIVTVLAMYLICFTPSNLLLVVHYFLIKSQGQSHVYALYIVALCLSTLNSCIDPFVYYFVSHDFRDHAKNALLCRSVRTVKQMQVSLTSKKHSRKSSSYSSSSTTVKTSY
Outline: (§1)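 FLIPR Tetra Ca2+ read-out in HT-29 cells, calcium 5 dye. Compound preincubation 30 min r.t., with an initial read for agonist activity. Final activator levels: SLIGKV 8 μM, thrombin 1 U/mL, trypsin 3.1 U/mL, UTP 0.6 μM.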

[2] = biological target: T2, PAR2 (HT-29 cells, trypsin activation) (Homo sapiens, UniProt P55085); assay: Ca FLIPR TETRA assay, ANTAGONIST mode, stimulation with 3.1 U/mL trypsin; assay type: cell-based; settings: HT-29 cells, stimulation with 3.1 U/mL trypsin
T2 construct: host or cells: HT-29 cells
T2 sequence (P55085 26-397): T1 sequence (P55085 26-397)
Outline: as §1

[3] = tested on: Thrombin-stimulated Ca2+ response in HT-29 cells; assay: Ca FLIPR TETRA assay, ANTAGONIST mode, stimulation with 1 U/mL Thrombin; assay type: cell-based, human; settings: Homo sapiens, HT-29 cells, stimulation with 1 U/mL Thrombin
Outline: as §1

[4] = tested on: UTP-stimulated Ca2+ response in HT-29 cells; assay: Ca FLIPR TETRA assay, ANTAGONIST mode, stimulation with 0.6 μM UTP; assay type: cell-based, human; settings: Homo sapiens, HT-29 cells, stimulation with 0.6 μM UTP
Outline: as §1

Compound	IC50 [1] [nM]	IC50 [2] [nM]	IC50 [3] [nM]	IC50 [4] [nM]	IC50 ([1]; antagonist mode) [nM]	IC50 ([2]; antagonist mode) [nM]	IC50 ([3]; antagonist mode) [nM]	IC50 ([4]; antagonist mode) [nM]
CCOC(=O)[C@H]1CCCN(C(=O)c2cn3nc(-c4ccc(F)cc4)cc(C(F)(F)F)c3n2)[C@@H]1C [Compound I-76]	3300	4800	5500	4400	–	–	–	–
COc1cccc(CC(=O)N2CCN(C(=O)c3cn4nc(-c5ccc(F)cc5)cc(C(C)C)c4n3)C[C@@H]2C)c1 [Compound I-132]	3	5	> 500	> 500	–	–	–	–
Cc1cc(-c2ccc(F)cc2)nn2cc(C(=O)N3CCN(C(=O)C(C)(C)O)[C@@H](C)C3)nc12 [Compound I-158]	9100	26000	77000	67000	–	–	–	–
COc1ccc(CC(=O)N2CCN(C(=O)c3cn4nc(-c5ccc(F)cc5)cc(C(C)C)c4n3)C[C@@H]2C)cc1 [Compound I-133]	1	6	36000	> 500	–	–	–	–
Cc1nc(C(=O)N2CCN(C(=O)c3cn4nc(-c5ccc(C)c(F)c5)cc(C(C)C)c4n3)C(C)(C)C2)c[nH]1 [Compound I-376]	–	–	–	–	2	3.2	> 1000	> 1000
CC(C)c1cc(-c2ccc(F)cc2)nn2cc(C(=O)N3CCN(C(=O)C4(NC(=O)OC(C)(C)C)CC4)[C@@H](C)C3)nc12 [Compound I-148]	52	96	> 50000	39000	–	–	–	–
Cc1cccc(-c2cc(C(C)(C)C)c3nc(C(=O)N4CCN(C(=O)c5cc(C)n[nH]5)CC4(C)C)cn3n2)c1 [Compound I-406]	–	–	–	–	2.2	2.8	370	> 1000
Cc1ccc(-c2cc(C(C)C)c3nc(C(=O)N4CCN(C(=O)c5ccn[nH]5)CC4(C)C)cn3n2)cc1F [Compound I-374]	–	–	–	–	1.4	1.6	> 1000	> 1000
CC(C)c1cc(-c2ccc(F)c(Cl)c2)nn2cc(C(=O)N3CCN(C(=O)[C@H]4CC[C@@H](C(=O)O)CC4)CC3(C)C)nc12 [Compound I-495]	–	–	–	–	4.1	5	21500	11100
CCN1CCN(C(=O)c2cn3nc(-c4ccc(F)cc4)cc(C(C)(C)C)c3n2)C(C)(C)C1=O [Compound I-211]	–	–	–	–	5.4	4.5	> 1000	> 1000
Cc1cc(-c2cc(C(C)C)c3nc(C(=O)N4CCN(C(=O)c5ccncn5)CC4(C)C)cn3n2)ccc1F [Compound I-262]	–	–	–	–	9.2	14.5	> 1000	> 1000
CC(C)c1cc(-c2ccc(F)cc2)nn2cc(C(=O)N3CCN(C(=O)CCn4cccn4)[C@@H](C)C3)nc12 [Compound I-135]	22	220	16000	17000	–	–	–	–
CC(C)CCC(=O)N1CCN(C(=O)c2cn3nc(-c4ccc(F)cc4)cc(C(C)C)c3n2)C[C@@H]1C [Compound I-127]	2	4	6500	5400	–	–	–	–
Cc1cc(-c2ccc(F)cc2)nn2cc(C(=O)N3CCN(C(=O)[C@H](O)C(C)(C)C)[C@@H](C)C3)nc12 [Compound I-153]	250	1450	19000	22000	–	–	–	–
CC(C)c1cc(-c2ccc(F)cc2)nn2cc(C(=O)N3CCN(C(=O)C(O)c4ccccc4)[C@@H](C)C3)nc12 (stereo partly drawn) [Compound I-117]	0.3	0.9	9600	8100	–	–	–	–
COC(=O)C1CC(C(=O)N2CCN(C(=O)c3cn4nc(-c5ccc(Cl)cc5)cc(C(C)C)c4n3)C(C)(C)C2)C1 (stereo not drawn) [Compound I-544]	–	–	–	–	1.5	1.8	> 1000	> 1000
CC(C)c1cc(-c2ccc(C(F)F)cc2)nn2cc(C(=O)N3CCN(C(=O)c4nc[nH]n4)CC3(C)C)nc12 [Compound I-294]	–	–	–	–	8.8	13.7	> 1000	> 1000
CC(C)(C)c1cc(-c2ccc(F)cc2)nn2cc(C(=O)N3CCN(C(=O)c4nnn[nH]4)CC3(C)C)nc12 [Compound I-296]	–	–	–	–	32	44.7	> 1000	> 1000
